From patent EP3833345B1, “SMALL MOLECULE-INHIBITORS OF 6-PHOSPHOFRUCTO-1-KINASE FOR REDUCING LACTATE GENERATION BY CANCER CELLS” (Kemijski Institut, priority 2018, dated 2020)
Entries after “also recorded” stand apart in the source; their conditions may differ.

Columns and labels:
Jurkat cells [1] = test: lactate excretion by Jurkat cells (enzymatic L-lactic acid kit); type: cell-based, human
Procedure: The cells were incubated in 1 mL volume (24 well plates) at 5% CO2 and 37°C. The inhibitors were added in 100 µM concentration. As a control, equivalent amount of DMSO as used for the addition of inhibitors was supplemented to the medium. The tests started with 1×10^5 cells per mL. Extracellular lactate excreted by the Jurkat cells was measured in the supernatant of the growth medium after the cells were removed by centrifugation at 1500 rpm for 5 minutes. Lactate concentration was determined enzymatically using L-Lactatic acid kit (K-LATE, Megazyme, Ireland).
Measurements of lactate excretion in the tumorigenic Jurkat cells and the cells treated with two selected inhibitors at different concentrations were repeated by more detailed measurements. The growth conditions were identical to those described in Experiment 2. No significant difference in lactate excretion could be observed by the treated and untreated cells during the initial stage of growth that lasted for approximately 12 hours. Later on lactate excretion by the Jurkat cells ceased in the presence of both inhibitors.

Jurkat cells [2] = test: Seahorse XF assay (ECAR and OCR) in Jurkat cells; type: cell-based, human; settings: 100 µM added 24 hours before the experiment; treated versus untreated cells
Procedure: The efficiency of Inhibitors No. 3 and No. 9 was also tested by the determinations of glycolytic capacities in Jurkat cells in the presence and absence of inhibitors. For this purpose, Seahorse XF assay (Agilent Technology) was performed that enables non-destructive measurements of extracellular acidification rate (ECAR) and oxygen consumption rate (OCR) of tested cells. The cells were incubated in […] GlutaMAX medium with 10% FBS and 24 hours before the experiment inhibitors were added (100 µM). Non-adherent Jurkat cells (1×10^6 per mL) were stuck to the bottom of the wells by poly-I-lysine. The experiment was conducted essentially as recommended by Seahorse XF protocol and after 20 minutes of incubation, 1 µM of oligomycin A (ATP synthase inhibitor) and 0,25 µM of Carbonyl cyanide-4-(trifluoromethoxy)phenylhydrazone (FCCP) (mitochondrial oxidative phosphorylation uncoupler) were added to the cells. […] Reduced lactate excretion by the cells treated with both inhibitors might be responsible for reduced ECARs. Although the addition of oligomycin A and FCCP increased the extracellular acidification rate by the cells treated with both inhibitors, similar increase of ECAR was also observed in the untreated cells. […] It implies that inhibited PFK1 enzymes might reduce glycolytic flux and prevent the need for pyruvate reduction into lactate by re-oxidizing redundant cytosolic NADH. Under such conditions pyruvate can enter mitochondria, replenishing tri-carboxylic acids (TCA) cycle and fuelling oxidative respiration.

[3] = system: human embryonic kidney (HEK 293) cells; test: lactate excretion by non-tumorigenic HEK 293 cells; type: cell-based
Procedure: The effect of Inhibitor No. 3 on lactate excretion was tested also on two non-tumorigenic cell lines. First, fast proliferating human embryonic kidney (HEK 293) cells were assessed for lactate formation in the presence of Inhibitor No. 3. RPMI 1640 GlutaMAX medium (Thermo Fisher) supplemented with 10% FBS was used as a growth medium. […] About 95 mg/L of lactate were detected after 72 hours of incubation by untreated cells (control) and by the cells growing in the presence of Inhibitor No. 3 (Figure 9a). Similar results were recorded also by non-tumorigenic MCF-10A cell line isolated form the epithelial cells of the mammary gland. The cells were cultivated in MEBM medium supplemented by additives that were obtained as a MEGM Kit from Lonza/Clonetics Corporation. Characteristically these cells grew slower than HEK 293 cells with correspondingly slower lactate excretion rate. After 96 hours of incubation, only about 27 mg/L of lactate was detected in the medium. Again, no influence of different concentrations of Inhibitor No. 3 on lactate generation could be observed (Figure 9b).

COLO 829 cells = test: cytotoxicity in COLO 829 cells (LDH kit); type: cell-based
Procedure: (§1) Lactate generation, growth yield and survival under normal and inhibitory conditions of three different tumorigenic cells lines were determined in more detailed measurements. […] Cytotoxicity was measured by the Lactate dehydrogenase (LDH) kit (Roche).

MDA-MB-231 cells = test: cytotoxicity in MDA-MB-231 cells (LDH kit); type: cell-based
Procedure: as §1
Inhibitors No. 23, 29, 30 and 31 were tested for preventing lactate generation by the MDA-MB-231 cells.

Jurkat cells [4] = test: long-term fed-batch cultivation of Jurkat cells (18 days); settings: 100 µM
[5] = target: T1, native human (85 kDa) 6-phosphofructo-1-kinase (PFK-M), nPFK-M (Homo sapiens, UniProt P08237); test: in vitro inhibition of purified recombinant native PFK-M enzyme; settings: inhibitor range 10 - 50 µM, Figure 3
T1 sequence (P08237 1-780): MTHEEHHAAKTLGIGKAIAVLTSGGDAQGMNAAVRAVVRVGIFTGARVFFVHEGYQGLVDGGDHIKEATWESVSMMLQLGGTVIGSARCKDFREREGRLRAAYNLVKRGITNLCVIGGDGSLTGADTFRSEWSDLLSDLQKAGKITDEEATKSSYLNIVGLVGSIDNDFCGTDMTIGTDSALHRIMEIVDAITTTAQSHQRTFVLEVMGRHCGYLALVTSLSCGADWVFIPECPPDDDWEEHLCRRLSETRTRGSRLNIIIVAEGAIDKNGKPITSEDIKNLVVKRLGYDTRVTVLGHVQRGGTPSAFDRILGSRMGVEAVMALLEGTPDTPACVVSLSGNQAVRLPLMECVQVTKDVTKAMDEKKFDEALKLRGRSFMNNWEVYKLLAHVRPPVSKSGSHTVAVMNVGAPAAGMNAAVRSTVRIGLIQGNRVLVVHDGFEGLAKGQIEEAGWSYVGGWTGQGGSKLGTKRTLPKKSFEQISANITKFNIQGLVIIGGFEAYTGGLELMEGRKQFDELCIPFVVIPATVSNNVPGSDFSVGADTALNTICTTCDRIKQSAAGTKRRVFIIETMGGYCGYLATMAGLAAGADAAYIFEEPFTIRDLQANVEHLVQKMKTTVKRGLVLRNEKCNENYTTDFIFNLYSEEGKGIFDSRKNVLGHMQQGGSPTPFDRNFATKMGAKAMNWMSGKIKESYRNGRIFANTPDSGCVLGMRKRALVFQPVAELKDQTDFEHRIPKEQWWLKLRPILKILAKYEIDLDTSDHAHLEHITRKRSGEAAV

[6] = sequential addition at 24-hour intervals, 92 hours, average over medium without and with inhibitor
[7] = single addition, average over control and different concentrations of inhibitor

## O=C(CSc1nnc(-c2ccc3c(c2)OCO3)o1)Nc1ccon1 [Inhibitor No. 3, 2-[(5-benzo[1,3]dioxol-5-yl-1,3,4-oxadiazol-2-yl)sulfanyl]-N-isoxazol-3-yl-acetamide]
Jurkat cells [1]; inhibitor concentrations lower than 200 µM
  time at which lactate production was averted: about 24 hours
Jurkat cells [1]; preliminary test, 100 µM inhibitor, followed for 48 hours, versus DMSO control
  lactate excretion by the Jurkat cells: Significantly lowered lactate excretions; also recorded: effectively prevented excretion
Jurkat cells [2]
  ECAR and OCR values prior to the addition of oligomycin A and FCCP: untreated Jurkat cells revealed higher ECAR and OCR values
[3]; 72 hours of growth, different concentrations of inhibitor
  reduction of lactate generation, HEK 293: no significant reduction of lactate generation
[3]; after 72 hours of incubation, same for untreated control
  lactate detected, HEK 293: About 95 mg/L
COLO 829 cells; [6]
  average percentages of dead cells, COLO 829, sequential re-insertion: 1,95±0,15%
COLO 829 cells; [7]
  average percent of dead COLO 829 cells: 5,01±1,08%
MDA-MB-231 cells; [6]
  average percentages of dead cells, MDA-MB-231, sequential re-insertion: 2,05±0,18%
MDA-MB-231 cells; [7]
  average percent of dead MDA-MB-231 cells: 7,2±0,47%
Jurkat cells [4]; fed-batch, 18 days
  viability of the Jurkat cells, long-term: slight decrease of viability
Jurkat cells [4]; long term experiment
  duration of slow reduction of lactate generation rate after the addition of inhibitor: 24 to 48 h
[5]
  inhibition of the activity of native nPFK-M enzyme: remarkably reduced also the activity of native nPFK-M enzyme
